Test results published in PMC11590367, “Characterization of novel small molecule inhibitors of estrogen receptor-activation function 2 (ER-AF2)” (Breast Cancer Research : BCR, 2024).

Columns and labels:
[1] = test system: ER transcriptional activity in T47D-KBluc cells; test: Luciferase transcriptional assay; assay type: cell-based; settings: ER transcription, luciferase reporter, 1 nM E2, 24 h treatment, ± SD of 3 biological replicates
Method: T47D-KBluc cells or PC3m-luc cells were starved for 72 h and then seeded into 96-well plates at 20,000 or 5,000 cells/well, respectively. […] One day post-treatment, the media was removed, and cells were lysed with 65 µl of 1x passive lysis buffer (Promega #E1910). Following two freeze-thaw cycles, 20 µl of lysate were transferred to a white, 96-well flat bottom plate (Corning Life Sciences Cat#3912). 50 µl of luciferase reagent (Promega. Luciferase Assay System E1500) was added to each well, and luminescence was measured using the TECAN M200 Pro plate reader. E2 (1 nM), 4-hydroxytamoxifen (OHT) (4 nM), and DMSO (0.2%) were used as controls for this assay. […] E2 alone represented 100% transcriptional activation, while the 0.2% DMSO control represented 0% transcriptional activity. OHT was used as a positive control for an active compound.

[2] = test system: MCF7 cells; test: PrestoBlue viability assay, MCF7; assay type: cell-based; settings: Homo sapiens, 1 nM E2, 72 h treatment, ± SD of 3 biological replicates
Method: (§1) T47D, MCF7, TamR3, and MDA-MB-231 cells were starved for 72 h and then seeded into black clear-bottom 96-well plates (Corning Life Sciences Cat#3904) at 20,000 cells/well (T47D, MCF7, TamR3) or 5,000 cells/well (MDA-MB-231). […] 20 µl of PrestoBlue Cell Viability Reagent (Thermo Fisher A13262) was added to each well and incubated at 37 °C for 1 h. Fluorescence intensity was measured using the TECAN F500 plate reader with emission and excitation wavelengths of […], respectively.

[3] = test system: TamR3 cells; test: PrestoBlue viability assay, TamR3; assay type: cell-based; settings: 1 nM E2, 72 h treatment, ± SD of 3 biological replicates
Method: as §1

[4] = test system: ER target genes (cyclinD1, CDC2, E2F, PR, pS2) in TamR3 cells; test: Real-time PCR of ER target genes, TamR3; assay type: cell-based; settings: 1 µM Tamoxifen
Method: Total RNA was extracted using TRIzol, 72 h post-treatment. cDNA synthesis was conducted using the Maxima First Strand cDNA Synthesis Kit for RT-qPCR (Thermo K1641) according to the manufacturer’s protocol. RT-PCR was conducted on the QuantStudio 7 Pro instrument and expression fold change was calculated using 2−ΔΔCt method normalized to 18s.

[5] = test system: T47D cells; test: PrestoBlue viability assay, T47D; assay type: cell-based; settings: 1 nM E2, 72 h treatment, ± SD of 3 biological replicates
Method: as §1

[6] = test system: MDA-MB-231 cells; test: PrestoBlue viability assay, MDA-MB-231; assay type: cell-based; settings: dose response 50 to 0.01 µM, 1 nM E2
Method: as §1

[7] = Precipitation in MST assay buffer; assay type: physicochemical; settings: 2% DMSO, 0.03 to 1000 µM
Method: MST was used to validate the direct binding and measure the binding affinities between the lead compounds and the recombinant ER-LBD. ER-LBD was labeled with red fluorescent dye using a Protein Labeling Kit RED-NHS 2nd Generation (Nanotemper MO-L011) according to the manufacturer’s protocol. The compounds were serially diluted 1:2 in 100% DMSO from 50 to 0.0015 mM, then added to 10 nM of labeled ER protein in the assay buffer (25 mM Tris, pH 8.4, 150 mM NaCl, 20 µM E2, 0.1 mM PMSF, 0.05% Tween20) at final concentrations of 0.03 to 1000 µM. Recombinant proteins in cell free assays are not affected by DMSO concentrations up to 10%. A final concentration of 2% DMSO was chosen for MST as the compounds required this concentration to be soluble in the assay buffer. […] The corresponding data points were removed from the analysis. […] Each protein/compound mixture was then loaded into Monolith Premium Capillaries (Nanotemper MO-K025). All assays were conducted with medium MST power and 20% excitation power. Data analysis and Kd estimation were performed with the MO Affinity Analysis software from Nanotemper.

[8] = biological target: T1, recombinant ER-LBD (residues 298–554) (Homo sapiens, UniProt P03372); test: Microscale thermophoresis (MST) direct binding; settings: averaged from three independent assays, 20 µM E2 in buffer, read-out: Kd (binding affinity to ER-LBD)
T1 construct: The ER-LBD (residues 298–554) was cloned into pET28a bacterial expression plasmid; His-tag (N); made in house; host or cells: E. coli BL21-DE3 (with pRARE)
Method: The ER-LBD (residues 298–554) was cloned into pET28a bacterial expression plasmid with an N-terminal His-tag. pET28a-His-ER and pRARE were transformed into E. coli (BL21-DE3). Bacteria were grown at 37 [drawing 1] C overnight, and then diluted 1:20 the following day in LB media and grown at 37 [drawing 2] C until the OD600 reached 0.5. Protein expression was induced with 1 mM IPTG, and 50 µM E2 was added to the media. Cells were then grown for 5 h at 25 °C. Bacterial pellets were collected by centrifugation at 13,000 rpm for 7 min. Pellets were resuspended in lysis buffer (25 mM Tris, pH 8.4, 150 mM NaCl, 20 µM E2, 1 mM DTT, 0.1 mM PMSF, cOmplete protease inhibitor (Roche)) then sonicated and centrifuged to obtain the soluble extracts. ER-LBD was purified using affinity chromatography with Ni-NTA agarose resin. The presence of the ER-LBD in eluted fractions was confirmed by SDS-PAGE and validated by mass spectrometry. The eluted protein was further purified by size exclusion chromatography (s75), and fractions containing the ER-LBD protein were pooled and concentrated using Amicon Ultra centrifugal filters (3 K MWCO).
MST was used to validate the direct binding and measure the binding affinities between the lead compounds and the recombinant ER-LBD. […]

[9] = biological target: T2, ER-LBD AF2 site / PGC1a coactivator peptide (Homo sapiens, UniProt P03372); test: TR-FRET coactivator peptide displacement (LanthaScreen ER alpha Coactivator Assay); assay type: binding; settings: 4 nM E2, 4 h
T2 construct: The assay utilizes GST-tagged ER-LBD (final concentration, 7.3 nM); purchased Thermo Fisher A15885
Method: We performed a TR-FRET assay to assess whether compounds displace the AF2 peptide from the ER-AF2 pocket using the LanthaScreen TR-FRET ER alpha Coactivator Assay Kit (Thermo Fisher, A15885). The assay utilizes GST-tagged ER-LBD (final concentration, 7.3 nM), terbium-labeled GST-antibody (final concentration, 5 nM), and a fluorescein-coactivator peptide, PGC1a (final concentration, 250 nM) in the presence of 4 nM E2. The GST-antibody, ER protein and fluorescent peptide mixture was incubated with four concentrations of compound (500 µM, 167 µM, 56 µM, 18.5 µM) for 4 h. The sample was excited at 340 nm and read at 520 nm on a Syngergy Neo2 plate reader (BioTek).

[10] = biological target: T3, full length ERɑ protein, estrogen binding site (EBS) (Homo sapiens, UniProt P03372); test: E2-displacement assay (PolarScreen fluorescence polarization); settings: fluorescence polarization, 1, 10 and 50 µM
T3 construct: full length ERɑ protein was incubated with Fluormone ES2 Green; purchased ThermoFisher A15882
T3 sequence (P03372 whole entry): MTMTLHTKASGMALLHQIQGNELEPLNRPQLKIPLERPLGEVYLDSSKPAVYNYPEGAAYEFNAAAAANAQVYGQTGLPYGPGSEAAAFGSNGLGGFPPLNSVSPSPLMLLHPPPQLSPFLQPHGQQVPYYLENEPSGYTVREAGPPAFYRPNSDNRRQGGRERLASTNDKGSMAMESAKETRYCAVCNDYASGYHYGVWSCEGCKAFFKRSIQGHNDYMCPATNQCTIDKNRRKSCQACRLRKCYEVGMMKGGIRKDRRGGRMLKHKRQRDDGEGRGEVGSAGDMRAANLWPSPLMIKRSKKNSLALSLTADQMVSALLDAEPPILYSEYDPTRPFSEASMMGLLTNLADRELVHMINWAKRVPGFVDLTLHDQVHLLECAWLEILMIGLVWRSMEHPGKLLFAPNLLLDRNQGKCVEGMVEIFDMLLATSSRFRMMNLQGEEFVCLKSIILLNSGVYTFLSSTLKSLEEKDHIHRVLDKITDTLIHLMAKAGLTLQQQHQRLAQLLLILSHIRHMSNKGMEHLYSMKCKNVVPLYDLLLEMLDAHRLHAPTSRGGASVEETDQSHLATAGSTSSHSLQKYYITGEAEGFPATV
Method: The E2 displacement assay was performed using the PolarScreen Estrogen Receptor Alpha Competitor Assay, Green (ThermoFisher A15882) according to the manufacturer’s protocol. In brief, full length ERɑ protein was incubated with Fluormone ES2 Green (Fluormone Tracer) in the ES2 screening buffer in a black bottom 384-well plate (Corning 3573) in the presence of either 1, 10, or 50 µM of test compounds. The final concentrations in the assay were 2% DMSO (consistent with the MST assay), 4.5 nM fluormone, and 40 nM ERɑ protein. 20 µl of the mixture were added to each well, with triplicates performed for each condition. The plate was incubated in the dark at room temperature for 4 h before fluorescence polarization was measured using a Synergy Neo2 plate reader (BioTek).

[11] = biological target: ER D538G/F404L mutant (Homo sapiens, UniProt P03372, D538G/F404L); test: Transcriptional activity of fulvestrant resistant mutant ER; assay type: cell-based; settings: compared to DMSO
ER D538G/F404L mutant, sequence (P03372 whole entry F404L/D538G): as the sequence (P03372 whole entry) above, with F404L, D538G counted along it

[12] = set-up: method as in earlier work; settings: cited from earlier work
[13] = set-up: method as in earlier work; settings: cited from earlier work; remark: listed apart in the source
[14] = biological target: T4, ER-LBD (residues 298–554), recombinant, N-terminal His-tag (UniProt P03372 298-554, red fluorescent dye (Protein Labeling Kit RED-NHS 2nd Generation)); test: MST; 10 nM RED-NHS labelled ER-LBD, ligand titrated; 25 mM Tris pH 8.4, 150 mM NaCl, 20 µM E2, 0.1 mM PMSF, 0.05% Tween20; medium MST power, 20% excitation power; Kd averaged from three independent assays; settings: both partners purified
T4 construct: Kept with 20 µM E2 in lysis and assay buffers; also called recombinant ER-LBD; source: E. coli (BL21-DE3) with pRARE, purified (Ni-NTA, size exclusion s75), 50 µM E2 added during expression
T4 sequence (looked up): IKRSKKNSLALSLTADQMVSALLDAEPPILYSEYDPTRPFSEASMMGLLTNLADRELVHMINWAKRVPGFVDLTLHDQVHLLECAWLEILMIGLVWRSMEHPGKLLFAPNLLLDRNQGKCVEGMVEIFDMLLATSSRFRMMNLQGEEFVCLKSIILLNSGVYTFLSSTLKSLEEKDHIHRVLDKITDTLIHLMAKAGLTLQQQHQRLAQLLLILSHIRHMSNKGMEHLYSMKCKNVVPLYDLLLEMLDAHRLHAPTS

O=C(Nc1cccc(CNCc2cnc3ccccn23)c1)C1CCCO1 (stereo not drawn) [VPC-260961]
IC50 ([1]; 24 h): 7.26 ± 0.73 µM
IC50 [2]: 18.7 ± 1.18 µM
IC50 [3]: 18.7 ± 1.15 µM

CC/C(=C(\c1ccccc1)c1ccc(OCCN(C)C)cc1)c1ccccc1 [Tamoxifen, tamoxifen, reference compound]
ER target gene expression in TamR3, tamoxifen alone [4]: increased target gene expression

Cc1cccn2c(CNCc3ccc(F)cc3F)cnc12 [VPC-260711]
IC50 ([1]; 24 h): 6.4 µM
IC50 [1]: 6.36 ± 0.59 µM
IC50 ([5]; Homo sapiens, T47D, 72 h): 5.4 ± 1.23 µM
IC50 [2]: 18 ± 1.3 µM
IC50 [3]: 16.8 ± 2.07 µM
Effect on viability of ER-negative MDA-MB-231 cells [6]: minimal impact
Precipitation after addition of ER protein [7]: exhibited precipitation at 1000 and 500 µM

Cc1cccc(Oc2ccc(NC(=O)N[C@H]3C[C@H](CO)C3)cn2)c1C [VPC-260927]
IC50 ([1]; 24 h): 10.8 ± 3.85 µM
IC50 ([5]; Homo sapiens, T47D, 72 h): 13.8 ± 4.23 µM
IC50 [2]: 19.5 ± 2.16 µM
IC50 [3]: 24.4 ± 2.48 µM
Kd [8]: 13.2 ± 10.5 µM
Concentration at which a reduction of the FRET signal (PGC1⍺ peptide displacement) was observed [9]: 500 µM
Displacement of fluormone (fluorescent E2) from EBS [10]: displaces the fluormone at 1, 10 and 50 µM

CCNC(=O)c1cccc(CNCc2cnc3c(C)cccn23)c1 [VPC-260709]
IC50 ([1]; 24 h): 13.8 ± 2.92 µM
IC50 ([5]; Homo sapiens, T47D, 72 h): 6.37 ± 3.3 µM
Precipitation after addition of ER protein [7]: exhibited precipitation at 1000 and 500 µM

Cc1cccn2c(CNCc3cccc(NC(=O)[C@H]4CCCO4)c3)cnc12 [VPC-260963]
IC50 ([1]; 24 h): 11.9 ± 3.62 µM
IC50 ([5]; Homo sapiens, T47D, 72 h): 19 ± 5.66 µM
IC50 [2]: 21.1 ± 4.67 µM
IC50 [3]: 16.2 ± 3.38 µM

CC1CC(NC(=O)Nc2ccc(Oc3cccc(F)c3F)nc2)C(=O)N1c1cnn(C)c1 (stereo not drawn) [VPC-260950]
IC50 ([1]; 24 h): 12.4 ± 4.57 µM
IC50 ([5]; Homo sapiens, T47D, 72 h): 16 ± 6.53 µM
IC50 [3]: 21.4 ± 3.66 µM

Cc1cccc(Oc2ccc(NC(=O)N3CCC(c4nnc[nH]4)C3)cn2)c1C (stereo not drawn) [VPC-260955]
IC50 ([1]; 24 h): 17.4 ± 1.12 µM
IC50 ([5]; Homo sapiens, T47D, 72 h): 18.6 ± 1.13 µM
IC50 [3]: 28.7 ± 1.3 µM
Precipitation after addition of ER protein [7]: exhibited precipitation at 1000 and 500 µM

O=C(NCc1ccc2occc2c1)Nc1ccc(OCC2CCCO2)cc1 (stereo not drawn) [VPC-260936]
IC50 ([1]; 24 h): 27.2 ± 6.44 µM
IC50 ([5]; Homo sapiens, T47D, 72 h): 10.6 ± 4.27 µM
IC50 [3]: 21.8 ± 6.51 µM
Precipitation after addition of ER protein [7]: exhibited precipitation at 1000 and 500 µM

Cc1cccn2c(CNCc3cccc(NC(=O)[C@@H]4CCCO4)c3)cnc12 [VPC-260962]
IC50 ([1]; 24 h): 10.8 µM
IC50 [1]: 10.8 ± 2.92 µM
IC50 [5]: 8.92 ± 2.81 µM
IC50 ([5]; Homo sapiens, T47D, 72 h): 8.9 µM
IC50 [2]: 16.4 ± 3.59 µM
IC50 [3]: 27.8 ± 7.99 µM
Effect on viability of ER-negative MDA-MB-231 cells [6]: minimal impact

Cc1cccn2c(CNCc3cccc(Br)c3)cnc12 [VPC-260726]
IC50 ([1]; 24 h): 17.9 ± 3.51 µM
IC50 ([5]; Homo sapiens, T47D, 72 h): 11.2 ± 5.67 µM
IC50 [2]: 16.6 ± 1.47 µM
IC50 [3]: 13.9 ± 1.84 µM

C[C@]12CC[C@@H]3c4ccc(O)cc4C[C@@H](CCCCCCCCC[S+]([O-])CCCC(F)(F)C(F)(F)F)[C@H]3[C@@H]1CC[C@@H]2O (stereo partly drawn) [fulvestrant]
Transcriptional activity of mutant ER D538G/F404L [11]: increased the transcriptional activity
Solubility [12]: poor solubility
Oral bioavailability [13]: not orally bioavailable

EAEEPSLLKKLLLAPANTQ [coactivator peptide PGC1α (control peptide of the MST assay)]
Kd [14]: 16.6 ± 2.4 µM
